These compounds were tested against recombinant CD73 (Homo sapiens (Human), UniProt P21589) (assay: Assay 2: Inhibition of the CD73 enzyme in vitro (0.05 nM CD73, 1 hour 37° C., Malachite Green)). Conditions: 0.05 nM CD73, 50 μM AMP, 1 hour at 37° C.
Format: biochemical
Summary of the method: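 Free phosphate was quantified from absorbance at 630 nm against a phosphate standard curve. This was read 5 min after Malachite Green was added at room temperature. Beforehand, the recombinant soluble enzyme reacted for 1 hour at 37° C.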

Chain of recombinant CD73 (P21589 27-547): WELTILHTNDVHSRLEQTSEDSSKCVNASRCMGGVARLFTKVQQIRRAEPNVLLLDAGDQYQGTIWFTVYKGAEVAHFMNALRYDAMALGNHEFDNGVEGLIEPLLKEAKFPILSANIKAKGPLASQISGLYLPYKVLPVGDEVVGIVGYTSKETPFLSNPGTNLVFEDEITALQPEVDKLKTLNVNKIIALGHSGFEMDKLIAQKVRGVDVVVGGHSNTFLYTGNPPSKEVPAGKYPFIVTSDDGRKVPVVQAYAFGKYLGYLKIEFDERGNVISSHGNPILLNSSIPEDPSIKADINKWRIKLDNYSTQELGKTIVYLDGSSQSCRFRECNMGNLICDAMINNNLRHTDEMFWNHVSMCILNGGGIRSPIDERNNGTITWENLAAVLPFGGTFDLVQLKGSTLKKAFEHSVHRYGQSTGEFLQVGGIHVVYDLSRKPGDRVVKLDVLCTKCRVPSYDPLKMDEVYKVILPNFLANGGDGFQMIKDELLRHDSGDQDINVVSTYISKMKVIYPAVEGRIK

Structure (SMILES) | IC50 [nM]
C#C[C@@]1(O)[C@@H](COC(Cc2ccnc(Cl)c2)(C(=O)O)C(=O)O)O[C@@H](n2cnc3c(N)nc(Cl)nc32)[C@@H]1O [Compound 5, 2-(((2R,3S,4R,5R)-5-(6-amino-2-chloro-9H-purin-9-yl)-3-ethynyl-3,4-dihydroxytetrahydrofuran-2-yl)methoxy)-2-((2-chloropyridin-4-yl)methyl)malonic acid] | 4
C#C[C@@]1(O)[C@@H](COC(Cc2ccc(-c3cccn(COC)c3=O)cc2)(C(=O)O)C(=O)O)O[C@@H](n2cnc3c(N)nc(Cl)nc32)[C@@H]1O [Compound 11, 2-(((2R,3S,4R,5R)-5-(6-amino-2-chloro-9H-purin-9-yl)-3-ethynyl-3,4-dihydroxytetrahydrofuran-2-yl)methoxy)-2-(4-(1-(methoxymethyl)-2-oxo-1,2-dihydropyridin-3-yl)benzyl)malonic acid] | 0.06
C#C[C@@]1(O)[C@@H](COC(Cc2ccc(-c3cccn(CC)c3=O)cc2)(C(=O)O)C(=O)O)O[C@@H](n2cnc3c(N)nc(Cl)nc32)[C@@H]1O [Example 20, 2-(((2R,3S,4R,5R)-5-(6-amino-2-chloro-9H-purin-9-yl)-3-ethynyl-3,4-dihydroxytetrahydrofuran-2-yl)methoxy)-2-(4-(1-ethyl-2-oxo-1,2-dihydropyridin-3-yl)benzyl)malonic acid] | 0.2
C#C[C@@]1(O)[C@@H](COC(Cc2ccccc2)(C(=O)O)C(=O)O)O[C@@H](n2cnc3c(NCc4ccccc4Cl)nc(Cl)nc32)[C@@H]1O [Example 77, 2-benzyl-2-(((2R,3S,4R,5R)-5-(2-chloro-6-((2-chlorobenzyl)amino)-9H-purin-9-yl)-3-ethynyl-3,4-dihydroxytetrahydrofuran-2-yl)methoxy)malonic acid] | 2
C#C[C@@]1(O)[C@@H](COC(Cc2ccccc2)(C(=O)O)C(=O)O)O[C@@H](n2cnc3c(N[C@@H](C)CO)nc(Cl)nc32)[C@@H]1O [Example 95, 2-benzyl-2-(((2R,3S,4R,5R)-5-(2-chloro-6-(((S)-1-hydroxypropan-2-yl)amino)-9H-purin-9-yl)-3-ethynyl-3,4-dihydroxytetrahydrofuran-2-yl)methoxy)malonic acid] | 7
C#C[C@@]1(O)[C@@H](COC(Cc2ccccc2)(C(=O)O)C(=O)O)O[C@@H](n2cnc3c(NCc4cccc(F)c4)nc(Cl)nc32)[C@@H]1O [Example 85, 2-benzyl-2-(((2R,3S,4R,5R)-5-(2-chloro-6-((3-fluorobenzyl)amino)-9H-purin-9-yl)-3-ethynyl-3,4-dihydroxytetrahydrofuran-2-yl)methoxy)malonic acid] | 2
C#C[C@@]1(O)[C@@H](COC(Cc2ccc(N3CCCNC3=O)cc2)(C(=O)O)C(=O)O)O[C@@H](n2cnc3c(NC(C)C)nc(Cl)nc32)[C@@H]1O [Example 140, 2-(((2R,3S,4R,5R)-5-(2-chloro-6-(isopropylamino)-9H-purin-9-yl)-3-ethynyl-3,4-dihydroxytetrahydrofuran-2-yl)methoxy)-2-(4-(2-oxotetrahydropyrimidin-1(2H)-yl)benzyl)malonic acid] | 0.29
C#C[C@@]1(O)[C@@H](COC(Cc2ccccc2)(C(=O)O)C(=O)O)O[C@@H](n2cnc3ccc(C(F)(F)F)nc32)[C@@H]1O [Example 125, 2-benzyl-2-(((2R,3S,4R,5R)-3-ethynyl-3,4-dihydroxy-5-(5-(trifluoromethyl)-3H-imidazo[4,5-b]pyridin-3-yl)tetrahydrofuran-2-yl)methoxy)malonic acid] | 235
C#C[C@@]1(O)[C@@H](COC(Cc2ccc(-c3cccnc3OC)cc2)(C(=O)O)C(=O)O)O[C@@H](n2cnc3c(N)nc(Cl)nc32)[C@@H]1O [Example 22, 2-(((2R,3S,4R,5R)-5-(6-amino-2-chloro-9H-purin-9-yl)-3-ethynyl-3,4-dihydroxytetrahydrofuran-2-yl)methoxy)-2-(4-(2-methoxypyridin-3-yl)benzyl)malonic acid] | 0.3
CC[C@@]1(O)[C@@H](COC(Cc2ccccc2)(C(=O)O)C(=O)O)O[C@@H](n2cnc3c(N)nc(Cl)nc32)[C@@H]1O [Example 56, 2-(((2R,3S,4R,5R)-5-(6-amino-2-chloro-9H-purin-9-yl)-3-ethyl-3,4-dihydroxytetrahydrofuran-2-yl)methoxy)-2-benzylmalonic acid] | > 200
C#C[C@@]1(O)[C@@H](COC(Cc2ccc(OC(F)(F)F)cc2)(C(=O)O)c2cscn2)O[C@@H](n2cnc3c(NC(C)C)nc(Cl)nc32)[C@@H]1O (stereo partly drawn) [Example 174, 2-(((2R,3S,4R,5R)-5-(2-chloro-6-(isopropylamino)-9H-purin-9-yl)-3-ethynyl-3,4-dihydroxytetrahydrofuran-2-yl)methoxy)-2-(thiazol-4-yl)-3-(4-(trifluoromethoxy)phenyl)propanoic acid] | 17
C#C[C@@]1(O)[C@@H](COC(Cc2ccccc2)(C(=O)O)C(=O)O)O[C@@H](n2cnc3c(N[C@@H](C)CC)nc(Cl)nc32)[C@@H]1O [Example 74, 2-benzyl-2-(((2R,3S,4R,5R)-5-(6-((S)-sec-butylamino)-2-chloro-9H-purin-9-yl)-3-ethynyl-3,4-dihydroxytetrahydrofuran-2-yl)methoxy)malonic acid] | 2
C#C[C@@]1(O)[C@@H](COC(Cc2ccsc2)(C(=O)O)c2cscn2)O[C@@H](n2cnc3c(NC(C)C)nc(Cl)nc32)[C@@H]1O (stereo partly drawn) [Example 169, 2-(((2R,3S,4R,5R)-5-(2-chloro-6-(isopropylamino)-9H-purin-9-yl)-3-ethynyl-3,4-dihydroxytetrahydrofuran-2-yl)methoxy)-2-(thiazol-4-yl)-3-(thiophen-3-yl)propanoic acid] | 162
C#C[C@@]1(O)[C@@H](COC(Cc2ccc(NCCN(C)CC(=O)O)cc2)(C(=O)O)C(=O)O)O[C@@H](n2cnc3c(N)nc(Cl)nc32)[C@@H]1O [Example 155, 2-(((2R,3S,4R,5R)-5-(6-amino-2-chloro-9H-purin-9-yl)-3-ethynyl-3,4-dihydroxytetrahydrofuran-2-yl)methoxy)-2-(4-((2-((carboxymethyl)(methyl)amino)ethyl)amino)benzyl)malonic acid] | 2
C#C[C@@]1(O)[C@@H](COC(Cc2ccc(N3CCCN(C)C3=O)cc2)(C(=O)O)C(=O)O)O[C@@H](n2cnc3c(NC(C)C)nc(Cl)nc32)[C@@H]1O [Example 151, 2-(((2R,3S,4R,5R)-5-(2-chloro-6-(isopropylamino)-9H-purin-9-yl)-3-ethynyl-3,4-dihydroxytetrahydrofuran-2-yl)methoxy)-2-(4-(3-methyl-2-oxotetrahydropyrimidin-1(2H)-yl)benzyl)malonic acid] | 0.25
C#C[C@@]1(O)[C@@H](COC(Cc2ccccc2)(C(=O)O)C(=O)OCC)O[C@@H](n2cnc3c(N)nc(C(N)=O)nc32)[C@@H]1O (stereo partly drawn) [Example 121, 2-(((2R,3S,4R,5R)-5-(6-amino-2-carbamoyl-9H-purin-9-yl)-3-ethynyl-3,4-dihydroxytetrahydrofuran-2-yl)methoxy)-2-benzyl-3-ethoxy-3-oxopropanoic acid] | 1710
C#C[C@@]1(O)[C@@H](COC(Cc2ccc(-c3ccccc3)cc2)(C(=O)O)C(=O)O)O[C@@H](n2cnc3c(N)nc(Cl)nc32)[C@@H]1O [Example 53, 2-([1,1′-biphenyl]-4-ylmethyl)-2-(((2R,3S,4R,5R)-5-(6-amino-2-chloro-9H-purin-9-yl)-3-ethynyl-3,4-dihydroxytetrahydrofuran-2-yl)methoxy)malonic acid] | 0.3
C#C[C@@]1(O)[C@@H](COC(Cc2ccccc2)(C(=O)O)C(=O)O)O[C@@H](n2cnc3c(NC(C)C)cc(Cl)nc32)[C@@H]1O [Example 30, 2-benzyl-2-(((2R,3S,4R,5R)-5-(5-chloro-7-(isopropylamino)-3H-imidazo[4,5-b]pyridin-3-yl)-3-ethynyl-3,4-dihydroxytetrahydrofuran-2-yl)methoxy)malonic acid] | 5
C#C[C@@]1(O)[C@@H](COC(Cc2ccc(N3CCCNC3=O)cc2)(C(=O)O)C(=O)O)O[C@@H](n2cnc3c(NCc4ccc(OC)cc4OC)cc(Cl)nc32)[C@@H]1O [Example 156, 2-(((2R,3S,4R,5R)-5-(5-chloro-7-((2,4-dimethoxybenzyl)amino)-3H-imidazo[4,5-b]pyridin-3-yl)-3-ethynyl-3,4-dihydroxytetrahydrofuran-2-yl)methoxy)-2-(4-(2-oxotetrahydropyrimidin-1 (2H)-yl)benzyl)malonic acid] | 0.14
C#C[C@@]1(O)[C@@H](COC(Cc2ccc(-c3cccn(C)c3=O)cc2)(C(=O)O)C(=O)O)O[C@@H](n2cnc3c(N)nc(Cl)nc32)[C@@H]1O [Example 162, 2-(((2R,3S,4R,5R)-5-(6-amino-2-chloro-9H-purin-9-yl)-3-ethynyl-3,4-dihydroxytetrahydrofuran-2-yl)methoxy)-2-(4-(1-methyl-2-oxo-1,2-dihydropyridin-3-yl)benzyl)malonic acid] | 0.42
C#C[C@@]1(O)[C@@H](COC(Cc2ccccc2)(C(=O)O)C(=O)O)O[C@@H](n2cnc3c(N[C@H](C)c4ccccc4)nc(Cl)nc32)[C@@H]1O [Example 62, 2-benzyl-2-(((2R,3S,4R,5R)-5-(2-chloro-6-(((R)-1-phenylethyl)amino)-9H-purin-9-yl)-3-ethynyl-3,4-dihydroxytetrahydrofuran-2-yl)methoxy)malonic acid] | 2
C#C[C@@]1(O)[C@@H](CO[C@@H](Cc2ccc(N3CCCNC3=O)cc2)C(=O)O)O[C@@H](n2cnc3c(N)nc(Cl)nc32)[C@@H]1O (single isomer, unassigned) [Example 167] | 139
C#C[C@@]1(O)[C@@H](COC(Cc2ccccc2)(C(=O)O)C(=O)O)O[C@@H](n2cnc3c(NCCCO)nc(Cl)nc32)[C@@H]1O [Example 34, 2-benzyl-2-(((2R,3S,4R,5R)-5-(2-chloro-6-((3-hydroxypropyl)amino)-9H-purin-9-yl)-3-ethynyl-3,4-dihydroxytetrahydrofuran-2-yl)methoxy)malonic acid] | 2
